Source: US20100292185A1, “BETA-LACTAMASE INHIBITORS” (priority 2009, published 2010)
Structures can show the parent of a compound that is named as a salt. Where two headings read alike, the source gives them in different places.

Assays:
[1] = biological target: T1, SHV-5 β-lactamase (Klebsiella pneumoniae, UniProt P0A3M1); assay: β-lactamase enzyme inhibition assay (nitrocefin substrate), SHV-5; type: biochemical
T1 construct: expressed as native untagged proteins; made in house; host or cells: E. coli BL21(DE3)
T1 sequence (P0A3M1 22-286): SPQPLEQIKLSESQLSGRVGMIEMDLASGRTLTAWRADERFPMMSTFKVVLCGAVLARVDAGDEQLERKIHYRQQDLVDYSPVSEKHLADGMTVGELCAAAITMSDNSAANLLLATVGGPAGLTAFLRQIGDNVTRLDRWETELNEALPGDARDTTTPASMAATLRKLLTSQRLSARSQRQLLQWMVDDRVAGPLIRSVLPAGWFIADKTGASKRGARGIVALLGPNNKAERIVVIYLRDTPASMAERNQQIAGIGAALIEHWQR
In short: (§1)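 IC50 values reflect a 50% drop in the initial rate of nitrocefin (100 μM final) hydrolysis, monitored at 486 nm. Inhibitor was preincubated with the purified native enzyme for 10 min at 37 °C in PBS pH 7.0.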

[2] = biological target: T2, CTX-M15 β-lactamase (Escherichia coli, UniProt Q9EXV5); assay: β-lactamase enzyme inhibition assay (nitrocefin substrate), CTXM-15; type: biochemical
T2 construct: expressed as native untagged proteins; made in house; host or cells: E. coli BL21(DE3)
T2 sequence (Q9EXV5 entry or part of it): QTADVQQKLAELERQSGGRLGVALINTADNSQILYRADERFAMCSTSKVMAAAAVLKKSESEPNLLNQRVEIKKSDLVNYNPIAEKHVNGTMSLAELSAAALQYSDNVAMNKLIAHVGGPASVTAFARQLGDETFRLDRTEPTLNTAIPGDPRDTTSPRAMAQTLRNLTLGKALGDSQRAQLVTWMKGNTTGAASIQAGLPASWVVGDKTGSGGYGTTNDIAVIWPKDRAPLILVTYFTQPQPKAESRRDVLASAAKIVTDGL
In short: as §1

[3] = biological target: T3, p99 AmpC β-lactamase (Enterobacter cloacae, UniProt P05364); assay: β-lactamase enzyme inhibition assay (nitrocefin substrate), P99 AmpC; type: biochemical
T3 construct: expressed as native untagged proteins; made in house; host or cells: E. coli BL21(DE3)
T3 sequence (P05364 21-381): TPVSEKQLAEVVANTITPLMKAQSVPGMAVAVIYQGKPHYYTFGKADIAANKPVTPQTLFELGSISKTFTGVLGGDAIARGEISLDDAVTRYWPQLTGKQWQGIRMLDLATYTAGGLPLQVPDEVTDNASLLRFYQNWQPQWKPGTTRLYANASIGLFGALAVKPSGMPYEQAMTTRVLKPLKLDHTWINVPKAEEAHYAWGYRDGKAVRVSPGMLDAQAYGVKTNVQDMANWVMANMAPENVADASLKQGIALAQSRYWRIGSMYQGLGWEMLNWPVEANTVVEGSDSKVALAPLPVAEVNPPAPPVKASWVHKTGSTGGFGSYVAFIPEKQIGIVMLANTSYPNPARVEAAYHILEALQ
In short: as §1

[4] = biological target: T4, KPC-2 β-lactamase (Klebsiella pneumoniae, UniProt Q9F663); assay: β-lactamase enzyme inhibition assay (nitrocefin substrate), KPC-2; type: biochemical
T4 construct: expressed as native untagged proteins; made in house; host or cells: E. coli BL21(DE3)
T4 sequence (Q9F663 25-293 limits assumed): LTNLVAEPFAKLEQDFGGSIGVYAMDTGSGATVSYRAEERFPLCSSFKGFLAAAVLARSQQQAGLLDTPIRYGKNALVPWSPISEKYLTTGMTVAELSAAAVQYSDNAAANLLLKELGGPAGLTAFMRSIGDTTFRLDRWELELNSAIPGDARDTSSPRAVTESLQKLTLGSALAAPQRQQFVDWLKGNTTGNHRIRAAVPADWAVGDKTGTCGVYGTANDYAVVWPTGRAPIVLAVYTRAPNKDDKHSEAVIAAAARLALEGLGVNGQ
In short: as §1

[5] = biological target: T5, VIM-2 metallo β-lactamase (Pseudomonas aeruginosa, UniProt Q9K2N0); assay: β-lactamase enzyme inhibition assay (nitrocefin substrate), VIM-2; type: biochemical; conditions: nitrocefin 100 μM, 37° C., PBS pH 7.0; read-out: VIM-2 IC50
T5 construct: made in house
Description: Isolation of β-lactamases. For SHV-5, p99 AmpC, KPC-2 and CTX-M15 β-lactamases, E. coli BL21(DE3) bacterial cells carrying expression plasmids (expressed as native untagged proteins) for the individual β-lactamases were grown in 1 L of Superbroth (Teknova Inc. Hollister, Calif.) supplemented with 100 μg/ml kanamycin and 1×5052 (0.5% glycerol, 0.05% glucose and 0.2% α-lactose) at 35° C. for 18-20 hours. Cells were harvested by centrifugation (4,000×g, 4° C., 20 min), and resuspended in 50 ml of 10 mM HEPES pH 7.5 (1/20 of the initial volume). The cells were lysed by sonication (5 pulses of 45 seconds) at 45 W on ice. The lysates were clarified by centrifugation at 10,000×g for 40 minutes at 4° C. Samples were diluted 5-fold in 50 mM sodium acetate pH 5.0, stored overnight at 4° C., after which they were centrifuged at 10,000×g for 30 minutes to clarify, and filtered through 0.45 μm filters. The samples were loaded onto a 5 ml Capto S sepharose cation exchange column (GE Healthcare) pre-equilibrated with 50 mM sodium acetate pH 5.0. The column was washed with 5 column volumes of 50 mM sodium acetate pH 5.0 to wash out unbound protein and a linear gradient of NaCl (0 to 500 mM) was used to elute the protein (over 16 CV) from the column. Fractions were assayed for β-lactamase activity using Centa (Calbiochem, Gibbstown, N.J.) as a reporter β-lactamase substrate for activity in the isolated fractions. Active fractions were pooled, concentrated and further purified by gel filtration chromatography on a Superdex 75 prep grade gel filtration column (GE Healthcare, Piscataway, N.J.) pre-equilibrated in 50 mM Hepes pH 7.5, 150 mM NaCl. Active fractions were pooled concentrated, quantitated by BCA protein determination (Thermo Scientific, Rockford, Ill.), and frozen at −80° C. in 20% glycerol until use.
For VIM-2 metallo (β-lactamase, the procedure was identical with the following exceptions: 1) the protein was not pH adjusted to pH 5 with 50 mM sodium acetate, 2) the chromatography step was changed to a 5 ml Q sepharose anion exchange column pre-equilibrated with 50 mM Hepes pH 7.5, and 3) elution of the protein was achieved by a linear gradient of NaCl (0-600 mM). Finally, the VIM-2 purification required a second run (3rd step) on the Q sepharose anion exchange column to achieve acceptable purity (>90%).
(§2) β-lactamase Inhibition. To determine the level of inhibition of β-lactamase enzymes, compounds were diluted in PBS at pH 7.0 to yield concentrations between 100 and 0.005 μM in microtiter plates. An equal volume of diluted enzyme stock was added, and the plates were incubated at 37° C. for 10 min. Nitrocefin solution was then dispensed as substrate into each well at a final concentration of 100 μM, and the plates were immediately read with the kinetic program at 486 nm for 10 min on the SPECTRAMAX® Plus^384 (high-throughput microplate spectrophotometer; Molecular Devices Corp., Sunnyvale, Calif.). Maximum rates of metabolism were then compared to those in control wells (without inhibitors), and percentages of enzyme inhibition were calculated for each concentration of inhibitor. The concentration of inhibitor needed to reduce the initial rate of hydrolysis of substrate by 50% (IC50) was calculated as the residual activity of β-lactamase at 486 nm using the SoftMax Pro 5.0 software (Molecular Devices Corp.).
Using the methodology described above, examples of the current invention were evaluated for their ability to inhibit β-lactamase enzymes. The results of these assays are summarized in Table 2 for representative enzymes across different subtypes (note SHV-5 and CTXM-15 exemplify different subclasses of Ambler Class A Extended Spectrum Beta Lactamases, KPC-2 exemplifies Class A carbapenemases, P99 represents chromosomal Class C AmpC, VIM-2 exemplifies subclass B1 of metallo-β-lactamases, and OXA-23 represents chromosome-encoded Class D oxacillin-hydrolyzing β-lactamases), NT=not tested.

[6] = biological target: T6, OXA-23 β-lactamase (Acinetobacter baumannii, UniProt Q9L4P2); assay: β-lactamase enzyme inhibition assay (nitrocefin substrate), OXA-23 crude extract; type: biochemical; conditions: nitrocefin 100 μM, 37° C., PBS pH 7.0; read-out: OXA-23 IC50
T6 construct: crude β-lactamase extracts were prepared from 20 ml overnight cultures; endogenous in cells; host or cells: Acinetobacter baumannii cells containing OXA-23 (crude freeze-thaw extract)
T6 sequence (Q9L4P2 18-273): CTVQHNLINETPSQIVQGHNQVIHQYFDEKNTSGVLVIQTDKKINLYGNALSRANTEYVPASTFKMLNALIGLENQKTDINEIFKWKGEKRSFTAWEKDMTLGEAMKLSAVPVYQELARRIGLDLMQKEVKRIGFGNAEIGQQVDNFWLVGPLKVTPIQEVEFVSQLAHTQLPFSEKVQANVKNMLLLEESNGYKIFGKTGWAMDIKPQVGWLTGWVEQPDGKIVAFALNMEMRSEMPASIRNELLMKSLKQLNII
Description: For OXA-23 β-lactamase, crude β-lactamase extracts were prepared from 20 ml overnight cultures with shaking. Acenitobacter baumanni cells containing OXA-23 were further diluted 10-fold and grown to mid-log phase (OD at 600 nm, 0.5-0.8) in Mueller-Hinton II (MH-II) broth at 37° C. The cells were pelleted at 5000 g, washed and resuspended in 2 mL PBS pH 7.0. The β-lactamases were extracted by four cycles of freezing and thawing followed by centrifugation. β-lactamase activity in the extracts was measured with the chromogenic cephalosporin nitrocefin. The amount of protein in each β-lactamase preparation was determined by the bicinchoninic acid (BCA) assay.
as §2

[7] = tested on: E. coli expressing the Class A ESBL SHV-5; assay: In vitro antibacterial assay of β-lactamase inhibition (broth microdilution MIC), E. coli SHV-5; type: cell-based
In short: (§3)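 MIC read by eye after 16-20 h at 37° C. Compounds were titrated 2-fold from 8 μg/mL down to 0.015 μg/mL (final) in CAMHB with a β-lactam antibiotic, and wells were inoculated per CLSI with strains grown 3-5 h under 50 μg/mL ampicillin.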

[8] = tested on: K. pneumoniae expressing the Class A Extended Spectrum Beta-Lactamase (ESBL) CTX-M-15; assay: In vitro antibacterial assay of β-lactamase inhibition (broth microdilution MIC), K. pneumoniae CTX-M-15; type: cell-based
In short: as §3

[9] = tested on: E. cloacae expressing the Class C P99+; assay: In vitro antibacterial assay of β-lactamase inhibition (broth microdilution MIC), E. cloacae P99+; type: cell-based
In short: as §3

[10] = tested on: K. pneumoniae expressing the Class A carbapenemase KPC-2; assay: microbe, parasite or virus in culture; type: cell-based
In short: as §3

[11] = tested on: P. aeruginosa expressing the Class B metallo β-lactamase VIM-2; assay: In vitro antibacterial assay of β-lactamase inhibition (broth microdilution MIC), P. aeruginosa VIM-2; type: cell-based; conditions: in presence of Ceftazidime 16 μg/mL (Examples 1-56)
In short: as §3

[12] = nitrocefin 100 μM, 37° C., PBS pH 7.0, read-out: P99 AmpC IC50
[13] = in presence of Ceftazidime 8 μg/ml (Examples 1-56)
[14] = in presence of Piperacillin 16 μg/ml (Examples 57-65)

SMILES | IC50 [1] [nM] | IC50 [2] [nM] | IC50 [3, 12] [nM] | IC50 [4] [nM] | IC50 [5] [nM] | IC50 [6] [nM] | MIC of example compound, E. coli SHV-5 [7, 13] [µg/mL] | MIC of example compound, K. pneumoniae CTX-M-15 [8, 13] [µg/mL] | MIC of example compound, E. cloacae P99+ [9, 13] [µg/mL] | MIC of example compound, K. pneumoniae KPC-2 [10, 13] [µg/mL] | MIC of example compound, P. aeruginosa VIM-2 [11] [µg/mL] | IC50 [3] [nM] | MIC of example compound, E. coli SHV-5 [7, 14] [µg/mL] | MIC of example compound, K. pneumoniae CTX-M-15 [8, 14] [µg/mL] | MIC of example compound, E. cloacae P99+ [9, 14] [µg/mL] | MIC of example compound, K. pneumoniae KPC-2 [10, 14] [µg/mL]
O=C(Cc1ccc(CNCCO)cc1)N[C@@H](Cc1cccc(C(=O)O)c1O)B(O)O [Example 34, (1R)-[2-{4-((2-hydroxy-ethylamino)-methyl)-phenyl}-acetylamino]-(3-carboxy-2hydroxy)benzyl-methylboronic acid formate] | 5 | 7 | 4 | 18 | 580 | 256 | 0.5 | 0.12 | 0.5 | 0.03 | >8 | – | – | – | – | –
Nc1cccc[n+]1Cc1ccc(CC(=O)N[C@@H](Cc2cccc(C(=O)O)c2O)B(O)O)cc1 [Example 40, (1R)-2-amino-(4-{[2-(3-carboxy-2-hydroxy-phenyl-borono-ethylcarbamoyl]-methyl}-benzyl)-pyridinium formate] | 20 | 4 | 10 | 653 | > 1000 | 132 | 0.25 | 0.25 | 2 | – | >8 | – | – | – | – | –
Cl.Nc1ccc(C(=O)N[C@@H](Cc2cccc(C(=O)O)c2O)B(O)O)cn1 [Example 7, (2R)-3-{2-[(2-Amino-pyridine-5-carbonyl)-amino]-2-borono-ethyl}-2-hydroxy-benzoic acid formate salt] | 320 | 1 | 1 | 4 | 820 | 508 | 1 | 0.12 | 0.12 | 0.03 | – | – | – | – | – | –
N=C(N)NCc1cc(CC(=O)N[C@@H](Cc2cccc(C(=O)O)c2O)B(O)O)ccn1 [Example 64, (2R)-3-{2-[(2-Guanidinomethyl-pyridin-4-yl-acetyl)-amino]-2-borono-ethyl}-2-hydroxy-benzoic acid formate] | 3 | 3 | – | 17 | 548 | 177 | – | – | – | – | – | 8 | 0.125 | >16 | 4 | 0.125
O=C(Cc1ccc(CN2CCCC2)cc1)N[C@@H](Cc1cccc(C(=O)O)c1O)B(O)O [Example 38, (1R)-[2-(4-pyrrolin-1-ylmethyl-phenyl)-acetylamino]-(3-carboxy-2-hydroxy)benzyl-methylboronic acid formate] | 5 | 3 | 9 | 6 | 858 | 234 | 0.5 | 0.25 | 0.5 | 0.03 | – | – | – | – | – | –
Cl.NCc1cc(CC(=O)N[C@@H](Cc2cccc(C(=O)O)c2O)B(O)O)ccn1 [Example 63, (2R)-3-{2-[(2-Aminomethyl-pyridin-4-yl-acetyl)-amino]-2-borono-ethyl}-2-hydroxy-benzoic acid hydrochloride] | 8 | 10 | 9 | 24 | 621 | 534 | – | – | – | – | – | – | 0.06 | >16 | 4 | 0.125
O=C(N[C@@H](Cc1cccc(C(=O)O)c1O)B(O)O)c1ccc(CN2CCNCC2)cc1 [Example 5, 2(R)-3-[2-(4-(1-piperazinylmethyl)benzoylamino)-2-borono-ethyl]-2-hydroxy-benzoic acid Hydrochloride] | > 1000 | 6 | – | 1 | 510 | > 1000 | 4 | 1 | 2 | 0.03 | – | 1 | – | – | – | –
